This assay can be described thus: Mouse Growth Regulant Tests (12-day weight gain over controls, compound in diet). It is filed as in vivo, CFI female mice. Particulars: for change in vivo at 400 ppm: 400 ppm in diet; for change in vivo at 200 ppm: 200 ppm in diet. The method, then:
CFI female mice from Carworth Farms are received when they are six weeks old. They are housed ten to a cage in air-conditioned rooms (72° F. to 76° F.) with automatically controlled lights, 14 hours on and 10 hours off. The basal diet used in these studies is Purina Laboratory Chow (see description below), which is supplied ad libitum. Water is also allowed ad libitum.
Thirteen days after arrival, the mice are weighed in groups of ten and assigned at random to the different treatments. Twelve days later the mice are weighed again and the experiment terminated. At least three cages (30 mice) of untreated controls are included in each test. Test data are provided in Tables VI, VII, VIII, and IX below wherein data are reported as percent weight gain over controls. Unless otherwise indicated in these tables, all compounds tested were dl-racemic mixtures. The following is a description of the diet to which the growth promoting compounds were added.

Setting [1] is: Mus musculus, feed or water, 288 h, Table VI.
Where [2] appears, read: Mus musculus, feed or water, 288 h, Table VIII.
Setting [3] is: Mus musculus, feed or water, 288 h, Table IX.
The mark [4] stands for this setting: Mus musculus, feed or water, 288 h, Table VII.

The source of these data is patent publication US4036979A, “Compositions containing 4,5,6,7-tetrahydrobenz[b]thien-4-yl-ureas or derivatives and methods of enhancing growth rate” (American Cyanamid Company, priority 1976, dated 1977).

In the case of `CN(O)C(=O)NC1CCCc2sccc21` (stereo not drawn) [Table VI: O,H,H,H,CH3,OH, 1-hydroxy-1-methyl-3-(4,5,6,7-tetrahydrobenzo[b]thien-4-yl)urea], the change in vivo at 400 ppm under setting [1] was 49.6%.

As for `CN(C(N)=O)C1CCCc2sccc21` (stereo not drawn) [Table VI: O,H,H,CH3,H, 1-methyl-1-(4,5,6,7-tetrahydrobenzo[b]-thien-4-yl)urea], under setting [1], the change in vivo at 400 ppm came out at 27.2%.

Regarding `O=C(NC1CCCc2sccc21)N1CCC2(CC1)C(=O)NCN2c1ccccc1` (stereo not drawn), under setting [1], the change in vivo at 400 ppm is 14%.

Consider `O=C(NC1CCCc2sccc21)N(O)Cc1ccccc1` (stereo not drawn) [Table VI: O,H,H,H,CH2C6H5,OH], for which the change in vivo at 400 ppm under setting [1] came out at 12%.

For `COc1ccc(N2CCN(C(=O)NC3CCCc4sccc43)CC2)cc1` (stereo not drawn), the change in vivo at 400 ppm under setting [1] stood at 24%.

For `CN(C)C(=O)NC1CCC(O)c2sccc21` (stereo not drawn) [Table VIII: O,CH3,CH3, 1,1-dimethyl-3-(7-hydroxy-4,5,6,7-tetrahydrobenzo[b]thien-4-yl)urea], the change in vivo at 400 ppm under setting [2] amounted to 81.5%.

Consider `O=C(NC1CCCc2sccc21)N1CCCC1` (stereo not drawn) [Table VI: O,H,H,H,CH2CH2CH2CH2], for which, under setting [1], the change in vivo at 400 ppm is 18%.

`O=C(NC1CCCc2sccc21)N1CCNCC1` (stereo not drawn): the change in vivo at 400 ppm under setting [1] worked out at 3%.

Consider `CONC(=O)NC1CCCc2sccc21` (stereo not drawn) [Table VI: O,H,H,H,H,OCH3, 1-methoxy-3-(4,5,6,7-tetrahydrobenzo[b]thien-4-yl)urea], for which the change in vivo at 400 ppm under setting [1] turned out to be 68.6%.

As to `Cc1csc2c1C(NC(N)=O)CCC2` (stereo not drawn) [Table VI: O,H,CH3,H,H,H, 3-methyl-4,5,6,7-tetrahydrobenzo[b]thien-4-ylurea], the change in vivo at 400 ppm under setting [1] was 26%.

For the compound `C#CCNC(=O)NC1CCCc2sccc21` (stereo not drawn) [Table VI: O,H,H,H,H,CH2CCH], the change in vivo at 400 ppm under setting [1] came out at 82%.

Turning to `CCCCN(CCCC)C(=O)NC1CCCc2sccc21` (stereo not drawn) [Table VI: O,H,H,H,n-butyl,n-butyl, 1,1-dibutyl-3-(4,5,6,7-tetrahydrobenzo[b]thien-4-yl)urea], the change in vivo at 400 ppm under setting [1] amounted to 6%.

On to `O=C(Nc1nccs1)NC1CCCc2sccc21` (stereo not drawn), for which the change in vivo at 400 ppm under setting [1] turned out to be 11%.

Regarding `C#CCN(C)C(=O)NC1CCCc2sccc21` (stereo not drawn) [Table VI: O,H,H,H,CH3,CH2CCH], under setting [1], the change in vivo at 400 ppm came out at 29%.

For the compound `NC(=O)NC1CCC(O)c2sccc21` (single isomer, unassigned; (-)) [Table VIII: O,H,H (levorotatory diastereomer, 91.5% isomer B)], the “& Weight Gain Over Controls” value (Table VIII, 25 ppm in diet) amounted to 74.5%.

In the case of `CCCCCCNC(=O)NC1CCCc2scc(C)c21` (stereo not drawn) [Table VI: O,H,CH3,H,H,n-hexyl], the change in vivo at 400 ppm under setting [1] amounted to 21%.

On to `COc1ccc(OC)c(NC(=O)NC2CCCc3sccc32)c1` (stereo not drawn), for which, under setting [1], the change in vivo at 400 ppm was determined as 32.4%.

Consider `NC(=O)NC1CCC(O)c2sccc21` (mixture of isomers) [Table VIII: O,H,H (mixture of dextrorotatory diastereomers, 62% isomer B)], for which, under setting [2], the change in vivo at 200 ppm is 13.5%.

With `Cc1sc2c(c1C)C(NC(N)=O)CCC2` (stereo not drawn) [Table VI: O,CH3,CH3,H,H,H], the change in vivo at 400 ppm under setting [1] was found to be 0%.

For the compound `O=C(NO)NC1CCCc2sccc21` (stereo not drawn) [Table VI: O,H,H,H,H,OH, 1-hydroxy-3-(4,5,6,7-tetrahydrobenzo[b]thien-4-yl)urea], under setting [1], the change in vivo at 400 ppm stood at 103%.

Consider `O=C(NCc1ccccc1)NC1CCCc2sccc21` (stereo not drawn) [Table VI: O,H,H,H,H,CH2C6H5, 1-benzyl-3-(4,5,6,7-tetrahydrobenzo[b]thien-4-yl)urea], for which, under setting [1], the change in vivo at 400 ppm was 32.4%.

As to `CN(Cc1ccccc1)C(=O)NC1CCCc2sccc21` (stereo not drawn) [Table VI: O,H,H,H,CH3,CH2C6H5], under setting [1], the change in vivo at 400 ppm is 14%.

As to `O=C(O)CONC(=O)NC1CCCc2sccc21` (stereo not drawn) [Table VI: O,H,H,H,H,OCH2CO2H], under setting [1], the change in vivo at 400 ppm was found to be 63.3%.

For the compound `O=C(NCc1ccncc1)NC1CCCc2sccc21` (stereo not drawn), under setting [1], the change in vivo at 400 ppm came to 46%.

For the compound `CC(C)N(O)C(=O)NC1CCCc2sccc21` (stereo not drawn) [Table VI: O,H,H,H,CH(CH3)2,OH], the change in vivo at 400 ppm under setting [1] came to 32%.

Regarding `C=CCN(CC=C)C(=O)NC1CCCc2sccc21` (stereo not drawn) [Table VI: O,H,H,H,CH2CHCH2,CH2CHCH2], the change in vivo at 400 ppm under setting [1] was determined as 4%.

On to `CCOc1ccc(NC(=O)NC2CCCc3sccc32)cc1` (stereo not drawn), for which the change in vivo at 400 ppm under setting [1] turned out to be 8%.

With `O=C(NC1CC1)NC1CCCc2sccc21` (stereo not drawn), under setting [1], the change in vivo at 400 ppm is 31%.

Take `O=C(NCC(F)(F)F)NC1CCCc2sccc21` (stereo not drawn) [Table VI: O,H,H,H,H,CH2CF3]: the change in vivo at 400 ppm under setting [1] amounted to 19%.

`NC(=O)NC1CCCCc2sccc21` (stereo not drawn) [Table IX: O,H,H,H, 5,6,7,8-tetrahydro-4H-cyclohepta[b]thien-4-ylurea]: under setting [3], the change in vivo at 400 ppm came out at 54%.

As for `CNC(=O)NC1CCC(O)c2sccc21` (stereo not drawn) [Table VIII: O,H,CH3, 1-methyl-3-(7-hyroxy-4,5,6,7-tetrahydrobenzo[b]thien-4-yl)urea], the change in vivo at 400 ppm under setting [2] turned out to be 60.2%.

Consider `N#CCNC(=O)NC1CCCc2sccc21` (stereo not drawn) [Table VI: O,H,H,H,H,CH2CN], for which the change in vivo at 400 ppm under setting [1] is 12%.

Turning to `CCOC(=O)NC(=S)NC1CCCc2sccc21` (stereo not drawn) [Table VI: S,H,H,H,H,CO2C2H5], the change in vivo at 400 ppm under setting [1] was found to be 22.3%.

With `CC(=O)NC(=O)NC1CCCc2sccc21` (stereo not drawn), the change in vivo at 400 ppm under setting [1] is -1.4%.

`C=CCNC(=O)NC1CCC(O)c2sccc21` (stereo not drawn) [Table VIII: O,H,CH2CHCH2, 1-allyl-3-(7-hydroxy-4,5,6,7-tetrahydrobenzo[b]thien-4-yl)-urea]: the change in vivo at 400 ppm under setting [2] was 29.1%.

In the case of `CCNC(=S)NC1CCCCc2sccc21` (stereo not drawn) [Table IX: S,H,H,C2H5, 1-ethyl-3-(5,6,7,8-tetrahydro-4H-cyclohepta[b]thien-4-yl)-2-thiourea], the change in vivo at 400 ppm under setting [3] was found to be 40%.

With `C#CCN(Cc1ccccc1)C(=O)NC1CCCc2sccc21` (stereo not drawn) [Table VI: O,H,H,H,CH2C6H5,CH2CCH], the change in vivo at 400 ppm under setting [1] turned out to be 30%.

`NC(=O)NC1CCC(O)c2sccc21` (single isomer, unassigned; (-)) [Table VIII: O,H,H (levorotatory diastereomer, 86% isomer A)]: the “& Weight Gain Over Controls” value (Table VIII, 25 ppm in diet) is 54.4%.

For `N#CNC(=O)NC1CCCc2sccc21` (stereo not drawn) [Table VI: O,H,H,H,H,CN], under setting [1], the change in vivo at 400 ppm turned out to be 1%.

Take `CC(C)NC(=O)NC1CCCc2sccc21` (stereo not drawn) [Table VI: O,H,H,H,H,CH(CH3)2, 1-isopropyl-3-(4,5,6,7-tetrahydrobenzo[b]thien-4-yl)urea]: the change in vivo at 400 ppm under setting [1] amounted to 88%.

For `NC(=O)NC1CCC(=O)c2sc(Br)cc21` (stereo not drawn) [2-bromo-4,5,6,7-tetrahydro-7-oxobenzo[b]thien-4-ylurea], the change in vivo at 400 ppm under setting [4] was 35.9%.

With `S=C(NC1CC1)NC1CCCc2sccc21` (stereo not drawn), the change in vivo at 400 ppm under setting [1] amounted to 32%.

As for `CCC(C)NC(=O)NC1CCCc2sc(C)c(C)c21` (stereo not drawn) [Table VI: O,CH3,CH3,H,2-butyl,H], the change in vivo at 400 ppm under setting [1] turned out to be 3%.

Consider `C=CCNC(=S)NC1CCCc2sccc21` (stereo not drawn) [Table VI: S,H,H,H,H,CH2CHCH], for which the change in vivo at 400 ppm under setting [1] was found to be 60%.

For the compound `CC(C)NC(=O)NC1CCC(=O)c2sccc21` (stereo not drawn) [Table VII: O,H,iso-C3H7], under setting [4], the change in vivo at 200 ppm stood at 84%.

With `NC(=S)NC1CCCc2sccc21` (stereo not drawn) [Table VI: S,H,H,H,H,H, 4,5,6,7-tetrahydrobenzo[b]thien-4-yl thiourea], the change in vivo at 400 ppm under setting [1] was 11%.

As for `CCCCNC(=S)NC1CCCc2sccc21` (stereo not drawn) [Table VI: S,H,H,H,H,n-butyl], the change in vivo at 400 ppm under setting [1] was 75%.

Turning to `CCCCCCONC(=O)NC1CCCc2sccc21` (stereo not drawn) [Table VI: O,H,H,H,H,On-C6H13], under setting [1], the change in vivo at 400 ppm came out at 29%.

`C[n+]1cccc(CNC(=O)NC2CCCc3sccc32)c1` (stereo not drawn): the change in vivo at 400 ppm under setting [1] stood at 6%.

Consider `O=C(NC1CCc2ccccc21)NC1CCCc2sccc21` (stereo not drawn), for which the change in vivo at 400 ppm under setting [1] is 8%.

For `CCCCCCCCCCNC(=O)NC1CCC(=O)c2sccc21` (stereo not drawn) [Table VII: O,H,n-C10H21], the change in vivo at 400 ppm under setting [4] was determined as 15.4%.

On to `CCCCCCCCNC(=O)NC1CCC(=O)c2sccc21` (stereo not drawn) [Table VII: O,H,n-C8H17], for which, under setting [4], the change in vivo at 400 ppm amounted to 83.4%.

On to `CN(C)C(=O)NC1CCCc2sccc21` (stereo not drawn) [Table VI: O,H,H,H,CH3,CH3, 1,1-dimethyl-3-(4,5,6,7-tetrahydrobenzo[b]thien-4-yl)urea], for which, under setting [1], the change in vivo at 400 ppm was 55.1%.

In the case of `CCCCCCCCNC(=S)NC1CCCc2sccc21` (stereo not drawn) [Table VI: S,H,H,H,H,n-C8H17], under setting [1], the change in vivo at 400 ppm worked out at 16%.

On to `CCONC(=O)NC1CCCc2sccc21` (stereo not drawn) [Table VI: O,H,H,H,H,OC2H5, 1-ethoxy-3-(4,5,6,7-tetrahydrobenzo[b]-thien-4-yl)urea], for which the change in vivo at 400 ppm under setting [1] turned out to be 61%.

Take `NC(=O)NC1CCC(=O)c2sccc21` (single isomer, unassigned; (-)) [Table VII: O,H,H (levorotatory enantiomorph), (-)-4,5,6,7-tetrahydro-7-oxobenzo[b]thien-4-ylurea]: under “Mus musculus, feed or water, 288 h, Table VII, 25 ppm in diet”, the change in vivo at 25 ppm is 119%.

As for `C=CCONC(=O)NC1CCCc2sccc21` (stereo not drawn) [Table VI: O,H,H,H,H,OCH2CHCH2], the change in vivo at 400 ppm under setting [1] amounted to 5%.

For the compound `S=C(NCCc1ccccn1)NC1CCCc2sccc21` (stereo not drawn), the change in vivo at 400 ppm under setting [1] amounted to 15%.

As for `O=C(NOCc1ccccc1)NC1CCCc2sccc21` (stereo not drawn) [Table VI: O,H,H,H,H,OCH2C6H5, 1-benzyloxy-3-(4,5,6,7-tetrahydrobenzo[b]thien-4-yl)urea], the change in vivo at 400 ppm under setting [1] was 7.8%.

As for `O=C(NCc1cccnc1)NC1CCCc2sccc21` (stereo not drawn), the change in vivo at 400 ppm under setting [1] is 48%.
